“And” between values parts separate entries of the source, which are not always exact repeats. Equal entries are not always repeated. Structures can show the parent of a compound that is named as a salt. Where two headings read alike, the source gives them in different places.
Experiments:
[1] = system: Human mammary carcinoma (MX-1) tumor cells; test: In vitro cytotoxicity, SRB assay, 72-hr incubation; conditions: read-out: Cytotoxicity IC50, MX-1
[2] = system: CCRF-CEM human lymphoblastic leukemia cells; conditions: read-out: Cytotoxicity IC50, CCRF-CEM
[3] = system: CCRF-CEM/Taxol; test: In vitro cytotoxicity, XTT assay, taxol-resistant subline; conditions: read-out: Cytotoxicity IC50, CCRF-CEM/Taxol
[4] = system: Human colon carcinoma HCT-116 cells; conditions: read-out: Cytotoxicity IC50, HCT-116
[5] = system: lung cancer H1299; test: cells; conditions: read-out: Cytotoxicity IC50, H1299; Table 2
[6] = system: lung cancer H460; test: cells; conditions: read-out: Cytotoxicity IC50, H460; Table 2
[7] = system: prostate cancer (PC3); test: cells; conditions: read-out: Cytotoxicity IC50, PC3; Table 2
[8] = system: human mammary carcinoma MX-1 xenograft; test: Antitumor therapeutic effect against MX-1 xenograft in nude mice; assay type: in vivo; conditions: i.v. injection; for Therapeutic effect: complete tumor remission (CR), mice with CR/total and day: treatment from Day 8, dose and schedule per compound as in Table 3 (30-150 mg/kg); for Maximal body-weight loss (%) / Therapeutic effect: tumor relapse: dose and schedule per compound as in Table 3
Protocol: (§1) Athymic nude mice bearing the nu/nu gene were obtained from NCI, Frederick, Md. and used for all human tumor xenografts. Male nude mice 6 weeks or older weighing 20-24 g or more were used. Compounds were administered via the tail vein for i.v. injection or infusion as described previously.^64 A typical formulation for chemotherapeutic studies for each drug was dissolved in DSMO to make a 25 mg/ml fresh solution, 0.4 ml of this solution was mixed with 0.3 ml of Tween 80, plus 1.3 ml to make 2 ml of 5 mg/ml solution. Bolus injection volume was 0.1-0.2 ml per mouse. Tumor volume was assessed by measuring length×width×height (or width) by using a caliper. For tumor-bearing nude mice during the course of the experiment, the body weight refers to total weight minus the weight of the tumor. All animal studies were conducted in accordance with the guidelines for the National Institute of Health Guide for the Care and Use of Animals and the protocol approved by the Institutional Animal Care and Use Committee.
The therapeutic effects of a drug against human tumor xenografts in nude mice, under the optimal therapeutic conditions but without any lethality due to drug toxicity, the following degrees of therapeutic effects are defined and calculated by the following formula: […]
where • T0 is the initial tumor size (in mm^3) at beginning of drug treatment; • Tc is tumor size of untreated control group on a given date; and • Tx is tumor size of the drug treated group on a given date.
[formula] • Tumor disappearance (complete remission or CR) is defined by the effect where • [Tx=0] for a period of time (in days) for a proportion of animals (NCR/N), where • N is the total number of animals in the group, and NCR is the number of mice in the group that achieved CR. • Tumor relapse is quantitatively calculated by • [The Day tumor relapsed (Drelp)—The Day CR achieved (DCR)] (Eq. 3) for a proportion of animals (Nrelp/N) where N is the total number of animals in the group, and Nrelp is the number of the mice in the group that relapsed. • The log cell kill (LCK) of the tumor tissue after a given chemotherapy that reached CR is estimated by: LCK=log [2^(Tumor remission in days/Tumor doubling time in days)] (Eq. 4)
(§2) Athymic nude mice bearing the nu/nu gene were used for human breast tumor MX-1 xenograft (FIGS. 3 and 4) and human brain glioma U87 GM xenograft (FIG. 5). Nude mice were obtained from National Cancer Institute, Frederick, Md. Male mice 6 weeks old or older weighing 22 g or more were used for experiments with subcutaneous tumor inoculation as described previously.^67 Drug was administrated via the tail vein by iv injection. Tumor volumes were assessed by measuring length×width×height (or width) by using caliper. Vehicle used was 20 μL DMSO in 180 μL saline. All animal studies were conducted in accordance with the guidelines of the U.S. National Institutes of Health Guide for the Care and Use of Animals and the protocol approved by the Institutional Animal Care and Use Committee.

[9] = system: CCRF-CEM human lymphoblastic leukemia cells; test: cells; conditions: 72 h, read-out: Cytotoxicity IC50, CCRF-CEM
[10] = Half-life in rat plasma
[11] = system: human glioma U87 GM s.c. xenograft; test: Therapeutic effect against U87 glioma s.c. xenograft in nude mice; assay type: in vivo
Protocol: as §1
as §2, with “Committee. […]” for “Committee.”

[12] = system: Human colon carcinoma HCT-116 cells; test: cells; conditions: HCT-116, 72 h, read-out: Cytotoxicity IC50, HCT-116
[13] = system: biosynthesis of DNA, RNA and protein in MX-1 cells; test: Inhibition of biosynthesis of DNA, RNA and protein (tritiated tracer incorporation); assay type: cell-based, human; conditions: for inhibition at 10 µM: Homo sapiens, MX1, read-out: Protein synthesis inhibition
Protocol: [^3H]Thymidine (1 uCi), [^3H]adenosine (1 μCi) and [^3H]leucine (2 μCi) were used as the tracers for incorporation into DNA, RNA and protein, respectively. […] Incubation was terminated at each time points as indicated.

[14] = Half-life in intravenous injection vehicle; conditions: intravenous injection vehicle (DMSO/Tween 80/saline)

CN(C)CC(=O)Nc1cccc(NC(=O)Nc2ccc(N(CCCl)CCCl)cc2)c1 (as salt: hydrochloride) [BO-2189, N-(3-(3-(4-(bis(2-chloroethyl)amino)phenyl)ureido)phenyl)-2-(dimethyl-amino)acetamide]
melting point: 62 to 64 °C

CC(C)COC(=O)Nc1cc(COC(=O)Nc2ccc(N(CCCl)CCCl)cc2)cc(Nc2c3ccccc3nc3ccccc23)c1 [BO-1244]
IC50 ([1]; Table 1, SRB, 72-hr incubation): 1130 nM
IC50 ([2]; Table 1, XTT, 72-hr incubation): 190 nM
IC50 ([3]; Table 1, XTT, 72-hr incubation): 650 nM
IC50 ([4]; Table 1, SRB, 72-hr incubation): 300 nM

CN(C)CCC(=O)Nc1cccc(NC(=O)Nc2ccc(N(CCCl)CCCl)cc2)c1 (as salt: HCl) [BO-2091, N-(3-(3-(4-(bis(2-chloroethyl)amino)-phenyl)ureido)phenyl)-3-(dimethylamino)-propanamide]
melting point: 88 to 90 °C

Cc1ccc(Nc2c3ccccc3nc3ccccc23)cc1NC(=O)Nc1ccc(N(CCCl)CCCl)cc1 [BO-1150]
IC50 ([1]; Table 1, SRB, 72-hr incubation): 580 nM
IC50 ([2]; Table 1, XTT, 72-hr incubation): 20 nM
IC50 ([3]; Table 1, XTT, 72-hr incubation): 30 nM
IC50 ([4]; Table 1, SRB, 72-hr incubation): 260 nM

N.N.[Cl][Pt][Cl] [Cisplatin, reference compound]
IC50 [5]: 13600 nM
IC50 [6]: 18400 nM
IC50 [7]: 9960 nM
IC50 ([2]; Table 2): 3540 nM
IC50 ([4]; Table 2): 12700 nM

Cc1ccc(Nc2c3ccccc3nc3c(C)cccc23)cc1NC(=O)Nc1ccc(N(CCCl)CCCl)cc1 [BO-1051]
Therapeutic effect: complete tumor remission (CR), mice with CR/total and day [8]: achieved complete tumor remission and 3/3 CR on D16, 16, 18
Maximal body-weight loss (%) [8]: 11%
Therapeutic effect: tumor relapse [8]: No relapse on D70
IC50 [9]: 80 nM
half-life [10]: 2.25 days
Tumor size as % of original tumor size ([11]; 100 mg/kg, Q2D×5, n=3, one cycle, 10 and 12 days after last dose): 18%
Tumor-growth suppression ([11]; BO-1049 150 mg/kg, BO-1051 100 mg/kg, BO-1055 30 mg/kg, Q2D×5, i.v.-injection): complete tumor-growth suppression
Therapeutic effect compared with cyclophosphamide (80 mg/kg, Q2D×5) ([11]; parallel study): superior therapeutic effects than cyclophosphamide
IC50 [12]: 440 nM
Delay in reaching maximal effect on DNA and RNA biosynthesis ([13]; 10 μM): about 1 hr
inhibition at 10 µM [13]: < 20%
half-life [14]: ~45 days
IC50 ([3]; Homo sapiens, CCRF-CEM, 72 h): 90 nM

Cc1cccc2c(Nc3cc(COC(=O)Nc4ccc(N(CCCl)CCCl)cc4)cc(NC(=O)OCC(C)C)c3)c3ccccc3nc12 [BO-1245]
IC50 ([1]; Table 1, SRB, 72-hr incubation): 5970 nM
IC50 ([3]; Table 1, XTT, 72-hr incubation): 3360 nM
IC50 ([4]; Table 1, SRB, 72-hr incubation): 2400 nM

Cc1cc(NC(=O)Nc2ccc(N(CCCl)CCCl)cc2)c2ccccc2n1 [BO-1038, 1-{4-[bis(2-chloroethyl)amino]phenyl}-3-(2-methylquinolin-4-yl)urea]
Therapeutic effect: complete tumor remission (CR), mice with CR/total and day [8]: achieved complete tumor remission and 3/3 CR on D16, 16, 16
Maximal body-weight loss (%) [8]: 4%
Therapeutic effect: tumor relapse [8]: No relapse on D70
IC50 [9]: 190 nM
IC50 ([1]; Homo sapiens, 72 h): 340 nM
IC50 [12]: 1420 nM
inhibition at 10 µM [13]: 40 to 80%
IC50 ([3]; Homo sapiens, CCRF-CEM, 72 h): 430 nM

From patent US9193687B2 (priority 2007, dated 2015)
